According to patent US9540323B2 (BRISTOL-MYERS SQUIBB COMPANY, priority 2012, dated 2017):

Tests used:
[1] = target: cloned human P2Y1 receptors (Homo sapiens (Human), UniProt P47900); test: Binding Assay B - Scintillation Proximity Assay (SPA) for P2Y1 binding, [33P] 2MeS-ADP; conditions: SPA, 0.3 nM [33P] 2MeS-ADP, Cheng-Prusoff; read-out: P2Y1 Ki (nM) using binding assay B
Protocol: Binding Assay B—Scintillation Proximity Assay (SPA) for P2Y1 Binding
A SPA membrane binding assay was used to identify inhibitors of [^33P] […] Reactions were allowed to proceed to completion at room temperature for 1 hour followed by centrifugation of the plate for 5 min. About 40 μL of the aqueous solution was aspirated. Plates were sealed and the [^33P]

[2] = tested on: human platelet rich plasma (PRP); test: ADP induced platelet aggregation assay; conditions: Homo sapiens, Platelet, 5 min, read-out: PA IC50 (μM) @ 10 μM ADP, human PRP, 10 μM ADP, AUC at 5 minute
Protocol: The ability of P2Y1 antagonists covered in the present invention to inhibit platelet aggregation induced by 10 μM ADP was tested using human platelet rich plasma (PRP) as described in Platelet Protocols: Research and Clinical Laboratory Procedures (White, M. M. et al., Academic Press (1999)). Human blood was collected in 30 μM (final concentration in blood) argatroban (GSK) as the anticoagulant at a ratio of 1 mL per 9 mL of blood. The PRP was isolated by centrifugation at 170 g for 12 minutes. The platelet poor plasma (PPP) was used as the blank for optical aggregometry. Compounds of the present invention in DMSO solution was preincubated with 250 μL PRP at 37° C. for 1 minute with stirring speed of 1000 rpm. Aggregation was initiated by addition of 2.5 μL of 1 mM ADP (Chrono-log, Havertown, Pa.) for a final ADP concentration of 10 μM. Platelet aggregation was monitored using Optical Aggregometer (Chrono-log, Havertown, Pa.) and the area under the curve (AUC) at 5 minute was measured. IC50 was calculated using vehicle control as 0% inhibition.

cloned human P2Y1 receptors, sequence (P47900 whole entry): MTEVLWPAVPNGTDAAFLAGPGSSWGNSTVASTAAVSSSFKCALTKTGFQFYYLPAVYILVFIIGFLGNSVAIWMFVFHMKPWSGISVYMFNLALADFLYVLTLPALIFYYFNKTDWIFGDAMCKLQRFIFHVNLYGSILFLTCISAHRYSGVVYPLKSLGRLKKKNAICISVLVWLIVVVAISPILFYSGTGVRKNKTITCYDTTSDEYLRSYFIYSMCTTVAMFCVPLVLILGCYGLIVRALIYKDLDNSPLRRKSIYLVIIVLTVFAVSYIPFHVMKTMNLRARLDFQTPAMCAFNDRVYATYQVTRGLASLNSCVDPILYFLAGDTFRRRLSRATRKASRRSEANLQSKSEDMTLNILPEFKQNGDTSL

SMILES	Ki [1] [nM]	IC50 [2] [µM]
CC1(C)CN(c2ccccc2NC(=O)Nc2csc(Cl)n2)c2c(O)cc(F)c(-c3ccc(F)cc3)c21 [Example 212, 1-(2-Chlorothiazol-4-yl)-3-(2-(5-fluoro-4-(4-fluorophenyl)-7-hydroxy-3,3-dimethylindolin-1-yl)phenyl)urea]	4.9	0.16
CC1(C)CN(c2ccccc2NC(=O)Nc2nc3ccc(F)cc3s2)c2c(O)cc(F)c(-c3ccc(F)cc3)c21 [Example 213, 1-(2-(5-Fluoro-4-(4-fluorophenyl)-7-hydroxy-3,3-dimethylindolin-1-yl)phenyl)-3-(6-fluorobenzo[d]thiazol-2-yl)urea]	25.4	0.38
CC1(C)CN(c2ccccc2NC(=O)Nc2ccc(OC(F)(F)F)cc2)c2c(O)cc(F)c(-c3ccc(Cl)cc3)c21 [Example 214, 1-(2-(4-(4-Chlorophenyl)-5-fluoro-7-hydroxy-3,3-dimethylindolin-1-yl)phenyl)-3-(4-(trifluoromethoxy)phenyl)urea]	13.7	0.21
CC1(C)CN(c2ccccc2NC(=O)Nc2csc(Cl)n2)c2c(O)cc(F)c(-c3ccc(Cl)cc3)c21 [Example 215, 1-(2-(4-(4-Chlorophenyl)-5-fluoro-7-hydroxy-3,3-dimethylindolin-1-yl)phenyl)-3-(2-chlorothiazol-4-yl)urea]	15	0.14
CC1(C)CN(c2ccccc2NC(=O)Nc2ccc(OC(F)(F)F)cc2)c2c(O)cc(F)c(-c3ccc(C(F)(F)F)cc3)c21 [Example 216, 1-(2-(5-Fluoro-7-hydroxy-3,3-dimethyl-4-(4-(trifluoromethyl)phenyl)indolin-1-yl)phenyl)-3-(4-(trifluoromethoxy)phenyl)urea]	54.7	0.14
CC1(C)CN(c2ccccc2NC(=O)Nc2nc3ccc(F)cc3s2)c2c(O)cc(F)c(-c3ccc(Cl)cc3)c21 [Example 224, 1-(2-(4-(4-Chlorophenyl)-5-fluoro-7-hydroxy-3,3-dimethylindolin-1-yl)phenyl)-3-(6-fluorobenzo[d]thiazol-2-yl)urea]	26.1	0.34
CC1(C)CN(c2ccccc2NC(=O)Nc2nc3ccc(Cl)cc3s2)c2c(O)cc(F)c(-c3ccc(Cl)cc3)c21 [Example 225, 1-(6-Chlorobenzo[d]thiazol-2-yl)-3-(2-(4-(4-chlorophenyl)-5-fluoro-7-hydroxy-3,3-dimethylindolin-1-yl)phenyl)urea]	34.7	0.36
CC1(C)CN(c2ccccc2NC(=O)Nc2nc3ccc(Cl)nc3s2)c2c(O)cc(F)c(-c3ccc(Cl)cc3)c21 [Example 226, 1-(2-(4-(4-Chlorophenyl)-5-fluoro-7-hydroxy-3,3-dimethylindolin-1-yl)phenyl)-3-(5-chlorothiazolo[5,4-b]pyridin-2-yl)urea]	26.6	0.46
CC1(C)CN(c2ccccc2NC(=O)Nc2nc3ccc(F)nc3s2)c2c(O)cc(F)c(-c3ccc(Cl)cc3)c21 [Example 227, 1-(2-(4-(4-Chlorophenyl)-5-fluoro-7-hydroxy-3,3-dimethylindolin-1-yl)phenyl)-3-(5-fluorothiazolo[5,4-b]pyridin-2-yl)urea]	21.6	0.56
CC1(C)CN(c2ccccc2NC(=O)Nc2csc(C(F)(F)F)n2)c2c(O)cc(F)c(-c3ccc(F)cc3)c21 [Example 228, 1-(2-(5-Fluoro-4-(4-fluorophenyl)-7-hydroxy-3,3-dimethylindolin-1-yl)phenyl)-3-(2-(trifluoromethyl)thiazol-4-yl)urea]	13.6	0.3
CC1(C)CN(c2ccccc2NC(=O)Nc2ccc(OC(F)(F)F)cc2)c2c(O)c(F)cc(-c3ccc(C(F)(F)F)cc3)c21 [Example 229, 1-(2-(6-Fluoro-7-hydroxy-3,3-dimethyl-4-(4-(trifluoromethyl)phenyl)indolin-1-yl)phenyl)-3-(4-(trifluoromethoxy)phenyl)urea]	15.3	0.22
CC1(C)CN(c2ccccc2NC(=O)Nc2ccc(OC(F)(F)F)cc2)c2c(O)c(F)cc(-c3ccccc3)c21 [Example 230, 1-(2-(6-Fluoro-7-hydroxy-3,3-dimethyl-4-phenylindolin-1-yl)phenyl)-3-(4-(trifluoromethoxy)phenyl)urea]	16.3	0.3
CC1(C)CN(c2ccccc2NC(=O)Nc2ccc(OC(F)(F)F)cc2)c2c(O)c(F)cc(-c3ccc(Cl)cc3)c21 [Example 231, 1-(2-(4-(4-Chlorophenyl)-6-fluoro-7-hydroxy-3,3-dimethylindolin-1-yl)phenyl)-3-(4-(trifluoromethoxy)phenyl)urea]	15.2	0.3
CC1(C)CN(c2ccccc2NC(=O)Nc2ccc(OC(F)(F)F)cc2)c2c(O)c(F)cc(-c3ccc(F)cc3)c21 [Example 232, 1-(2-(6-Fluoro-4-(4-fluorophenyl)-7-hydroxy-3,3-dimethylindolin-1-yl)phenyl)-3-(4-(trifluoromethoxy)phenyl)urea]	14.7	0.39
CC1(C)CN(c2ccccc2NC(=O)Nc2nc3ccc(F)nc3s2)c2c(O)cc(F)c(-c3ccc(F)cc3)c21 [Example 233, 1-(2-(5-Fluoro-4-(4-fluorophenyl)-7-hydroxy-3,3-dimethylindolin-1-yl)phenyl)-3-(5-fluorothiazolo[5,4-b]pyridin-2-yl)urea]	9.4	0.31
CC1(C)CN(c2ccccc2NC(=O)Nc2ccc(OC(F)(F)F)cc2)c2c(O)cc(F)c(-c3ccc(Cl)c(F)c3)c21 [Example 234, 1-(2-(4-(4-Chloro-3-fluorophenyl)-5-fluoro-7-hydroxy-3,3-dimethylindolin-1-yl)phenyl)-3-(4-(trifluoromethoxy)phenyl)urea]	40.8	0.29
CC1(C)CN(c2ccccc2NC(=O)Nc2ccc(OC(F)(F)F)cc2)c2c(O)cc(F)c(-c3cccc(Cl)c3)c21 [Example 235, 1-(2-(4-(3-Chlorophenyl)-5-fluoro-7-hydroxy-3,3-dimethylindolin-1-yl)phenyl)-3-(4-(trifluoromethoxy)phenyl)urea]	19.5	0.23
CC1(C)CN(c2ccccc2NC(=O)Nc2ccc(OC(F)(F)F)cc2)c2c(O)cc(F)c(-c3ccc(Cl)cc3F)c21 [Example 236, 1-(2-(4-(4-Chloro-2-fluorophenyl)-5-fluoro-7-hydroxy-3,3-dimethylindolin-1-yl)phenyl)-3-(4-(trifluoromethoxy)phenyl)urea]	17	0.23
CC1(C)CN(c2ccccc2NC(=O)Nc2ccc(OC(F)(F)F)cc2)c2c(O)cc(F)c(-c3ccc(F)c(Cl)c3)c21 [Example 237, 1-(2-(4-(3-Chloro-4-fluorophenyl)-5-fluoro-7-hydroxy-3,3-dimethylindolin-1-yl)phenyl)-3-(4-(trifluoromethoxy)phenyl)urea]	21.5	0.48
CC(C)CN1CCC(c2ccc(NC(=O)Nc3ccccc3N3CC(C)(C)c4c(-c5ccc(Cl)cc5)c(F)cc(O)c43)cc2)CC1 [Example 238, 1-(2-(4-(4-Chlorophenyl)-5-fluoro-7-hydroxy-3,3-dimethylindolin-1-yl)phenyl)-3-(4-(1-isobutylpiperidin-4-yl)phenyl)urea]	16.3	0.4
CC1(C)CN(c2ccccc2NC(=O)Nc2csc(Cl)n2)c2c(O)cc(F)c(-c3ccc(C(F)(F)F)cc3)c21 [Example 239, 1-(2-Chlorothiazol-4-yl)-3-(2-(5-fluoro-7-hydroxy-3,3-dimethyl-4-(4-(trifluoromethyl)phenyl)indolin-1-yl)phenyl)urea]	11.3	0.05
CC(C)(C)CN1CCC(c2ccc(NC(=O)Nc3ccccc3N3CC(C)(C)c4c(-c5ccc(Cl)cc5)c(F)cc(O)c43)cc2)CC1 [Example 240, 1-(2-(4-(4-Chlorophenyl)-5-fluoro-7-hydroxy-3,3-dimethylindolin-1-yl)phenyl)-3-(4-(1-neopentylpiperidin-4-yl)phenyl)urea]	13.7	0.31
CC(C)(C)c1ccc(-c2c(F)cc(O)c3c2C(C)(C)CN3c2ccccc2NC(=O)Nc2ccc(OC(F)(F)F)cc2)cc1 [Example 241, 1-(2-(4-(4-(tert-Butyl)phenyl)-5-fluoro-7-hydroxy-3,3-dimethylindolin-1-yl)phenyl)-3-(4-(trifluoromethoxy)phenyl)urea]	33.3	0.15
CC(C)(C)c1ccc(-c2c(F)cc(O)c3c2C(C)(C)CN3c2ccccc2NC(=O)Nc2csc(Cl)n2)cc1 [Example 242, 1-(2-(4-(4-(tert-Butyl)phenyl)-5-fluoro-7-hydroxy-3,3-dimethylindolin-1-yl)phenyl)-3-(2-chlorothiazol-4-yl)urea]	12.6	0.06
CC(C)(C)c1ccc(-c2c(F)cc(O)c3c2C(C)(C)CN3c2ccccc2NC(=O)Nc2csc(C(F)(F)F)n2)cc1 [Example 243, 1-(2-(4-(4-(tert-Butyl)phenyl)-5-fluoro-7-hydroxy-3,3-dimethylindolin-1-yl)phenyl)-3-(2-(trifluoromethyl)thiazol-4-yl)urea]	20.3	0.1
Cc1cc(-c2c(F)cc(O)c3c2C(C)(C)CN3c2ccccc2NC(=O)Nc2ccc(OC(F)(F)F)cc2)ccc1F [Example 245, 1-(2-(5-Fluoro-4-(4-fluoro-3-methylphenyl)-7-hydroxy-3,3-dimethylindolin-1-yl)phenyl)-3-(4-(trifluoromethoxy)phenyl)urea]	11.4	0.19
CC(C)(C)CN1CCC(NC(=O)Nc2ccccc2N2CC(C)(C)c3c(-c4ccc(C(F)(F)F)cc4)c(F)cc(O)c32)CC1 [Example 246, 1-(2-(5-Fluoro-7-hydroxy-3,3-dimethyl-4-(4-(trifluoromethyl)phenyl)indolin-1-yl)phenyl)-3-(1-neopentylpiperidin-4-yl)urea]	14.2	0.25
